Test results from patent US8796256B2 (Janssen Pharmaceutica NV, priority 2010, dated 2014).

Biological target: T1, ERR1 (also known as ERR-α or ERR-1) (Homo sapiens, UniProt P11474)
T1 sequence (P11474 193-421 limits assumed): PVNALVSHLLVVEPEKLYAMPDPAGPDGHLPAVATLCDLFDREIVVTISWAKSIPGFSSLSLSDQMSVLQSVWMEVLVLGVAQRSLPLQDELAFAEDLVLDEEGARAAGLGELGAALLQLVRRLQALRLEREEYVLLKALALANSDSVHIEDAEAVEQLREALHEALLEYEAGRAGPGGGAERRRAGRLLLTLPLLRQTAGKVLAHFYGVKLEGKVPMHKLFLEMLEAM
Assay: TR-FRET assay (disruption of co-activator peptide binding to ERR1 LBD)
Type: biochemical
Details: 6 nM 6His-ERR1LBD, 6 nM GST-SRC-2 peptide; average of 3 independent experiments
Method: Time-Resolved Fluorescence Resonance Energy Transfer (TR-FRET) experiments were performed to examine the functional response of ERR1 (also known as ERR-α or ERR-1) ligands. The TR-FRET assay described herein relied on the conformation of ERR1 for binding to a co-activator peptide: when a test compound binds to ERR1 and alters its conformation, it can disrupt the binding of the co-activator peptide. The components of this homogeneous secondary assay included: the ^6His-tagged-ERR1LBD, a GST-labeled-hSRC2 co-activator polypeptide and a fluorescent donor/acceptor pair from CIS bio international htrf/bioassays (Bedford, Mass.) using both an α-GST Europium (Eu) Cryptate label and an α^6His-XL665 (allophycocyanin) fluorophore.
For TR-FRET measurements, the reaction was buffered in 25 mM Tris pH 8, 2.5 mM Hepes, 20 mM KCl, 1 mM DTT, and 0.05 mg/mL BSA (delipidated). The final concentrations of reagents were 6 nM of ERR1LBD, 6 nM GST-SRC-2 peptide, 30 nM Eu cryptate, and 7.5 nM a^6His-XL665. Reactions were allowed to reach equilibrium at 25° C. for 4-18 h before collecting data on the Analyst from LJL Biosystems (Molecular Devices Sunnyvale, Calif.). […] Dose response curves were fitted using a hyperbolic equation and the data reported is the average of 3 independent experiments.

Compound	EC50
CS(=O)(=O)NC(=O)CN1C(=O)S/C(=C\c2ccc3c(cnn3Cc3ccc(C(F)(F)F)cc3C(F)(F)F)c2)C1=O [Compound 60, 2-[(5Z)-5-({1-[2,4-Bis(trifluoromethyl)-benzyl]-1H-indazol-5-yl}methylidene)-2,4-dioxo-1,3-thiazolidin-3-yl]-N-(methyl-sulfonyl)acetamide]	57 nM
O=C(O)[C@H]1CCCN1CCN1C(=O)S/C(=C\c2ccc3c(ccn3Cc3ccc(C(F)(F)F)cc3C(F)(F)F)c2)C1=O [Compound 248, 1-{2-[(5Z)-5-({1-[2,4-Bis(trifluoromethyl)benzyl]-1H-indol-5-yl}methylidene)-2,4-dioxo-1,3-thiazolidin-3-yl]ethyl}-D-proline]	290 nM
CS(=O)(=O)NN1C(=O)S/C(=C\c2ccc3c(cnn3Cc3ccc(F)cc3C(F)(F)F)c2)C1=O [Compound 363, N-[(5Z)-5-({1-[4-Fluoro-2-(trifluoromethyl)benzyl]-1H-indazol-5-yl}methylidene)-2,4-dioxo-1,3-thiazolidin-3-yl]methanesulfonamide]	59 nM
O=C(O)C1CC(N2C(=O)S/C(=C\c3ccc4c(cnn4Cc4ccc(C(F)(F)F)cc4C(F)(F)F)c3)C2=O)C1 (centres unmarked) [Compound 70, 3-[(5Z)-5-({1-[2,4-Bis(trifluoromethyl)benzyl]-1H-indazol-5-yl}methylidene)-2,4-dioxo-1,3-thiazolidin-3-yl]cyclobutanecarboxylic acid]	48 nM
CN(C)CCCN1C(=O)S/C(=C\c2ccc3c(ccn3Cc3ccc(Cl)cc3C(F)(F)F)c2)C1=O [Compound 244, (5Z)-5-[(1-{[4-Chloro-2-(trifluoromethyl)phenyl]methyl}-1H-indol-5-yl)methylidene]-3-[3-(dimethylamino)-propyl]-1,3-thiazolidine-2,4-dione]	50 nM
O=C(O)c1ccc(S(=O)(=O)NCCN2C(=O)S/C(=C\c3ccc4c(cnn4Cc4ccc(Cl)cc4C(F)(F)F)c3)C2=O)o1 [Compound 421, 5-({2-[(5Z)-5-({1-[4-Chloro-2-(trifluoromethyl)benzyl]-1H-indazol-5-yl}methylidene)-2,4-dioxo-1,3-thiazolidin-3-yl]ethyl}sulfamoyl)furan-2-carboxylic acid]	34 nM
CN1CC[C@@H](N2C(=O)S/C(=C\c3ccc4c(cnn4Cc4ccc(C(F)(F)F)cc4C(F)(F)F)c3)C2=O)[C@H](O)C1 (relative stereo) [Compound 276, (5Z)-5-({1-[2,4-Bis(trifluoromethyl)benzyl]-1H-indazol-5-yl}methylidene)-3-[trans-3-hydroxy-l-methylpiperidin-4-yl]-1,3-thiazolidine-2,4-dione]	29 nM
O=C1S/C(=C\c2ccc3c(c2)nnn3Cc2ccc(Cl)cc2C(F)(F)F)C(=O)N1Cc1nnn[nH]1 [Compound 265, (5Z)-5-({1-[4-Chloro-2-(trifluoromethyl)benzyl]-1H-benzotriazol-5-yl}methylidene)-3-(1H-tetrazol-5-ylmethyl)-1,3-thiazolidine-2,4-dione]	40 nM

Now from value to compound:

EC50	Compound
140 nM	CCN1CC[C@@H](N2C(=O)S/C(=C\c3ccc4c(cnn4Cc4ccc(Cl)cc4C(F)(F)F)c3)C2=O)[C@H](F)C1 (single isomer, unassigned) [Compound 326, (5Z)-5-({1-[4-Chloro-2-(trifluoromethyl)benzyl]-1H-indazol-5-yl}methylidene)-3-[trans-1-ethyl-3-fluoropiperidin-4-yl]-1,3-thiazolidine-2,4-dione]
73 nM	N[C@H](CN1C(=O)S/C(=C\c2ccc3c(cnn3Cc3ccc(Cl)cc3C(F)(F)F)c2)C1=O)c1ccccc1 [Compound 161, (5Z)-3-[(2S)-2-Amino-2-phenylethyl]-5-({1-[4-chloro-2-(trifluoromethyl)benzyl]-1H-indazol-5-yl}methylidene)-1,3-thiazolidine-2,4-dione]
22 nM	O=C1S/C(=C\c2ccc3c(cnn3Cc3ccc(Cl)cc3C(F)(F)F)c2)C(=O)N1[C@@H]1CNCC[C@H]1O (relative stereo) [Compound 279, (5Z)-5-({1-[4-Chloro-2-(trifluoromethyl)-benzyl]-1H-indazol-5-yl}methylidene)-3-[trans-4-hydroxypiperidin-3-yl]-1,3-thiazolidine-2,4-dione]
47 nM	O=C1S/C(=C\c2ccc3c(cnn3Cc3ccc(C(F)(F)F)cc3C(F)(F)F)c2)C(=O)N1O [Compound 291, (5Z)-5-({1-[2,4-Bis(trifluoromethyl)benzyl]-1H-indazol-5-yl}methylidene)-3-hydroxy-1,3-thiazolidine-2,4-dione]
180 nM	CN(C)CCN1C(=O)S/C(=C\c2ccc3c(cnn3Cc3ccc(F)cc3C(F)(F)F)c2)C1=O [Compound 5, (5Z)-3-[2-(Dimethylamino)ethyl]-5-[(1-{[4-fluoro-2-(trifluoromethyl)phenyl]methyl}-1H-indazol-5-yl)methylidene]-1,3-thiazolidine-2,4-dione]
87 nM	CC(C)N1C[C@@H](N2C(=O)S/C(=C\c3ccc4c(cnn4Cc4ccc(Cl)cc4C(F)(F)F)c3)C2=O)[C@@H](F)C1 (relative stereo) [Compound 325, (5Z)-5-({1-[4-Chloro-2-(trifluoromethyl)benzyl]-1H-indazol-5-yl}methylidene)-3-[cis-4-fluoro-1-(1-methylethyl)pyrrolidin-3-yl]-1,3-thiazolidine-2,4-dione]
19 nM	CC(C)NCCN1C(=O)S/C(=C\c2ccc3c(cnn3Cc3ccc(Cl)cc3C(F)(F)F)c2)C1=O [Compound 48, (5Z)-5-({1-[4-Chloro-2-(trifluoromethyl)benzyl]-1H-indazol-5-yl}methylidene)-3-{2-[(1-methylethyl)amino]ethyl}-1,3-thiazolidine-2,4-dione]
25 nM	COCCN1CCN(N2C(=O)S/C(=C\c3ccc4c(cnn4Cc4ccc(Cl)cc4C(F)(F)F)c3)C2=O)CC1 [Compound 352, (5Z)-5-({1-[4-Chloro-2-(trifluoromethyl)benzyl]-1H-indazol-5-yl}methylidene)-3-[4-(2-methoxyethyl)piperazin-1-yl]-1,3-thiazolidine-2,4-dione]
33 nM	O=C1S/C(=C\c2ccc3c(cnn3Cc3ccc(Cl)cc3C(F)(F)F)c2)C(=O)N1CC1CCNCC1 [Compound 130, (5Z)-5-({1-[4-Chloro-2-(trifluoromethyl)benzyl]-1H-indazol-5-yl}methylidene)-3-(piperidin-4-ylmethyl)-1,3-thiazolidine-2,4-dione]
140 nM	O=C1S/C(=C\c2ccc3c(cnn3Cc3ccc(Cl)cc3C(F)(F)F)c2)C(=O)N1C[C@@H]1C[C@@H](F)CN1 [Compound 184, (5Z)-5-({1-[4-Chloro-2-(trifluoromethyl)benzyl]-1H-indazol-5-yl}methylidene)-3-{[(2S,4R)-4-fluoropyrrolidin-2-yl]methyl}-1,3-thiazolidine-2,4-dione]
11 nM	O=C1S/C(=C\c2ccc3c(cnn3Cc3ccc(Cl)cc3C(F)(F)F)c2)C(=O)N1[C@H]1CCNC[C@@H]1F [Compound 382, (5Z)-5-({1-[4-Chloro-2-(trifluoromethyl)benzyl]-1H-indazol-5-yl}methylidene)-3-[(3S,4S)-3-fluoropiperidin-4-yl]-1,3-thiazolidine-2,4-dione]
67 nM	O=C(O)c1ccc(CN2C(=O)S/C(=C\c3ccc4c(cnn4Cc4ccc(Cl)cc4C(F)(F)F)c3)C2=O)cc1 [Compound 377, 4-{[(5Z)-5-({1-[4-Chloro-2-(trifluoromethyl)benzyl]-1H-indazol-5-yl}methylidene)-2,4-dioxo-1,3-thiazolidin-3-yl]methyl}benzoic acid]
